The text below walks through data of ChEMBL document CHEMBL5241112, “Insights into the recent progress in the medicinal chemistry of pyranopyrimidine analogs” (RSC Med Chem, 2022).

Converted amounts (≈) assume the structure as drawn.

Test [1] has as its system Mycobacterium tuberculosis. Nature of the test: Antitubercular activity against Mycobacterium tuberculosis H37Rv assessed as bacterial growth inhibition at 100 ug/ml. Format: functional.
Test [2] concerns Clostridium tetani. Nature of the test: Antibacterial activity against Clostridium tetani MTCC 449 assessed as bacterial growth inhibition by broth microdilution method. The test is classed as functional. A general note: Dilution methods test growth across graded concentrations, often in twofold steps.
In test [3] the test system is Aspergillus fumigatus. In words: Antifungal activity against Aspergillus fumigatus MTCC 227 assessed as fungal growth inhibition by broth microdilution method. Format: functional.
In test [4] the test system is Mycobacterium tuberculosis. Nature of the test: Antitubercular activity against Mycobacterium tuberculosis H37Rv assessed as bacterial growth inhibition at 250 ug/ml. The test is classed as functional.
In test [5] the test system is Plasmodium falciparum. Nature of the test: microbe, parasite or virus in culture.
The target of test [6] is Alpha-glucosidase (Saccharomyces cerevisiae S288c, UniProt P53341+P38158+P07265). In words: Inhibition of Saccharomyces cerevisiae alpha-glucosidase assessed as decrease in release of p-nitrophenol using pNPG as substrate incubated for 10 mins by spectroscopic analysis. Format: protein assay.
For test [7], the system named is HepG2. Nature of the test: Anticancer activity against human HepG2 cells assessed as reduction in cell viability incubated for 24 hrs by MTT colorimetric assay. Format: functional, cell-based. Particulars: HepG2, 24 h. (Tetrazolium dyes change colour on reduction, which living cells bring about.)
Test [8] deals with HCT-116. Nature of the test: Anticancer activity against human HCT-116 cells assessed as reduction in cell viability incubated for 24 hrs by MTT colorimetric assay. The test is classed as functional, cell-based. Particulars: HCT-116, 24 h.
In test [9] the test system is MCF7. Nature of the test: Anticancer activity against human MCF7 cells assessed as reduction in cell viability incubated for 24 hrs by MTT colorimetric assay. Particulars: MCF7, 24 h. Format: functional, cell-based.
Test [10] is described as follows: Antioxidant activity assessed as DPPH radical scavenging activity. Format: functional. (In general: DPPH is a stable violet radical that fades when it is reduced.)
Test [11] is described as follows: Antioxidant activity assessed as NO radical scavenging activity. The test is classed as functional.
Test [12] in a line: Antioxidant activity assessed as H2O2 radical scavenging activity. Format: functional.
Test [13] has as its system Proteus mirabilis. In words: Antibacterial activity against Proteus mirabilis NTCC-289 assessed as diameter of inhibition zone incubated for 24 hrs by disc diffusion method. The test is classed as functional.
For test [14], the system named is Aspergillus ochraceus. In words: Antifungal activity against Aspergillus ochraceus AUCC-230 assessed as diameter of inhibition zone incubated for 24 hrs by disc diffusion method. Format: functional.
In test [15] the test system is Staphylococcus aureus. In words: Antibacterial activity against Staphylococcus aureus NCTC-7447 assessed as diameter of inhibition zone incubated for 24 hrs by disc diffusion method. Format: functional.
Test [16] concerns Penicillium chrysogenum. In words: Antifungal activity against Penicillium chrysogenum AUCC-530 assessed as diameter of inhibition zone incubated for 24 hrs by disc diffusion method. Format: functional.
For test [17], the system named is Bacillus cereus. Nature of the test: Antibacterial activity against Bacillus cereus ATCC-14579 assessed as diameter of inhibition zone incubated for 24 hrs by disc diffusion method. The test is classed as functional.
Test [18] concerns Serratia marcescens. Nature of the test: Antibacterial activity against Serratia marcescens IMRU-70 assessed as diameter of inhibition zone incubated for 24 hrs by disc diffusion method. The test is classed as functional.
In test [19] the test system is Penicillium chrysogenum. In words: Antifungal activity against Penicillium chrysogenum assessed as diameter of inhibition zone by disc diffusion method. The test is classed as functional.
In test [20] the test system is Aspergillus ochraceus. In words: Antifungal activity against Aspergillus ochraceus assessed as diameter of inhibition zone by disc diffusion method. The test is classed as functional.
For test [21], the system named is Salmonella typhimurium. In words: Antibacterial activity against Salmonella typhimurium assessed as diameter of inhibition zone. The test is classed as functional, Salmonella enterica subsp. enterica serovar Typhimurium.
In test [22] the test system is Bacillus subtilis. In words: Antibacterial activity against Bacillus subtilis assessed as diameter of inhibition zone. Format: functional.
In test [23] the test system is Staphylococcus aureus. In words: Antibacterial activity against Staphylococcus aureus assessed as diameter of inhibition zone. The test is classed as functional.
Test [24] deals with Escherichia coli. Nature of the test: Antibacterial activity against Escherichia coli assessed as diameter of inhibition zone. The test is classed as functional.
Test [25] relates to Salmonella typhimurium. In words: Antibacterial activity against Salmonella typhimurium MTCC 98 assessed as bacterial growth inhibition by broth microdilution method. The test is classed as functional, Salmonella enterica subsp. enterica serovar Typhimurium. The conditions noted are these: Salmonella enterica.
The subject of test [26] is HepG2. Nature of the test: Anticancer activity against human HepG2 cells assessed as reduction in cell viability incubated for 48 hrs by MTT assay. The test is classed as functional, cell-based. Particulars: HepG2, 48 h.
The test system of test [27] is Escherichia coli. In words: Antibacterial activity against Escherichia coli ATCC 25922 assessed as diameter of inhibition zone at 50 mg/ml incubated for 24 hrs by paper disk diffusion method. Particulars: read-out: DIZ. The test is classed as functional.

The inhibition is the share of the control response that was lost under treatment. In general, MIC refers to the lowest concentration found to suppress growth. A word on the IC50: it is the concentration that gives 50% inhibition. For `CCOC(=O)C1=C(N)Oc2[nH]c(=S)[nH]c(=O)c2C1c1c(C)nn(-c2ccccc2)c1-n1ccnc1` (stereo not given), in test [1], the inhibition at 100 µg/mL was 30%. Besides, the MIC in test [2] came to 100 µg/mL (≈ 203 µM); in test [3] it was 200 µg/mL (≈ 407 µM). In addition, the inhibition at 250 µg/mL in test [4] is 37%. In test [5], this molecule came in with an IC50 of 0.97 µg/mL (≈ 1.97 µM).
Turning to `COc1cc(/C=C/C(=O)C2=C(/C=C/c3ccc(O)c(OC)c3)Oc3[nH]c(=O)[nH]c(=O)c3C2c2cccc([N+](=O)[O-])c2)ccc1O` (stereo not given), the concentration for half-maximal inhibition (IC50) in test [6] came to 9.7 µM.
For the molecule `N#CC(C#N)=C1c2c(-c3ccccc3)n[nH]c2Oc2[nH]c(=O)nc(-c3ccccc3O)c21`, the IC50 in test [7], in test [8] and in [9] was 30.1 µM throughout.
As for `COc1cc(/C=C/C(=O)CC(=O)/C=C/c2ccc(O)c(OC)c2)ccc1O` [CURCUMIN], the concentration for half-maximal inhibition (IC50) in test [6] stood at 44.8 µM.
In the case of `Nc1ncnc2c1C(c1ccc([N+](=O)[O-])cc1)c1ccc(O)cc1O2` (stereo not given), the figures for the half-inhibitory concentration (IC50) in test [10], in test [11] and in [12] were 34.34 µg/mL (≈ 102 µM), 50.32 µg/mL (≈ 150 µM) and 53.54 µg/mL (≈ 159 µM), respectively.
The matching figures for `Cc1cc(C(C)(C)C)c(O)c(C(C)(C)C)c1` [BUTYLATED HYDROXYTOLUENE]: 37.52 µg/mL (≈ 170 µM), 56.9 µg/mL (≈ 258 µM) and 65.33 µg/mL (≈ 296 µM).
For `Nc1ncnc2c1C(c1ccccc1O)c1ccc(O)cc1O2` (stereo not given), in that order: 36.82 µg/mL (≈ 120 µM), 50.32 µg/mL (≈ 164 µM) and 53.54 µg/mL (≈ 174 µM).
Turning to `O=c1oc2ccccc2c2c1C(c1ccc(Cl)cc1)c1c(ncn3nc(CCl)nc13)O2` (stereo not given), the “diameter of the inhibition zone (DIZ)” value in [13] came out at 21 mm; in test [14] it was 15 mm; in test [15], 18 mm; in test [16], 13 mm; in test [17], 19 mm; in test [18], 21 mm.
With `N#CC(C#N)=C1c2c(-c3ccccc3)n[nH]c2Oc2c1c(-c1ccccc1O)[nH]c1nc(=O)[nH]c(=O)c2-1`, the IC50 in test [7] came to 21.9 µM; in [8], 18.5 µM; in [9] it was 22.6 µM.
For `N#CC(C#N)=C1c2c(-c3ccccc3)n[nH]c2Oc2[nH]c(=S)nc(-c3ccccc3O)c21`, in that order: 22.6 µM, 22.6 µM and 22.6 µM.
In the case of NYSTATIN, the inhibition zone (IZ) in [14] was 22 mm; in [16] it was 24 mm; in test [19], 24 mm; in test [20] it was 22 mm.
As to `CCn1cc(C(=O)O)c(=O)c2cc(F)c(N3CCNCC3)cc21` [NORFLOXACIN], the “diameter of the inhibition zone (DIZ)” value in test [21] came to 16 mm; in [22], 24 mm; in [23], 14 mm; in [24], 20 mm. For the same molecule, the minimum inhibitory concentration (MIC) in [25] is 10 µg/mL (≈ 31.3 µM).
`CCOC(=O)c1nc2c3c(ncn2n1)Oc1c(c(=O)oc2ccccc12)C3c1ccc(Cl)cc1` (stereo not given): the “diameter of the inhibition zone (DIZ)” value in test [13] amounted to 21 mm; in test [14], 15 mm; in test [15] it was 18 mm; in test [16] it was 13 mm; in test [17], 19 mm; in test [18] it was 21 mm.
In the case of `Nc1ncnc2c1C(c1ccc3c(c1)OCO3)c1ccc(O)cc1O2` (stereo not given), the half-maximal inhibitory concentration (IC50) was determined as 39.46 µg/mL (≈ 118 µM) in test [10] and 53.54 µg/mL (≈ 160 µM) in test [12].
For the molecule `O=C1CC(c2ccc(O)cc2)c2c([nH]c(=O)[nH]c2=O)O1` (stereo not given), the 50% inhibitory concentration (IC50) in test [26] came to 8.2 µM.
Turning to `O=c1[nH]c(-c2ccccc2)nc2c1C(c1ccc(Cl)cc1)C=C(c1cc3ccccc3oc1=O)O2` (stereo not given), in test [27], the zone of inhibition at 50000 µg/mL amounted to 10 mm.
